Data from the supplement of paper PMC5908809.

How the values were obtained:
[1] = tested on: normal NK cells expanded with K562-aAPC; assay: drug sensitivity score (DSS) (DSS units); higher = more sensitive; extreme values may be limits of the assay; details: 72 h; IL-2 2.5 ng/mL
Protocol: (§1)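 Drug sensitivity and resistance testing on K562-aAPC-expanded normal NK cells: 5 concentrations (10-fold steps over a 10,000-fold range), 72 h at 37 °C, viability by CellTiter-Glo normalised to DMSO and benzethonium chloride controls; DSS from the fitted curve.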

NK-92 (IL-2 2.5 ng/mL) [2] = assay: percent inhibition of viability; higher = more inhibition; details: 72 h
KHYG-1 (IL-2 2.5 ng/mL) [3] = assay: as above; details: 72 h
[4] = tested on: normal primary NK cells, pool 3 (3 donors) (IL-2 2.5 ng/mL); assay: as above; details: 72 h
NKL (IL-2 2.5 ng/mL) [5] = assay: as above; details: 72 h
IMC-1 (IL-2 20 ng/mL) [6] = assay: as above; details: 72 h
[7] = tested on: normal primary NK cells, pool 2 (3 donors) (IL-2 2.5 ng/mL); assay: as above; details: 72 h
[8] = tested on: normal primary NK cells, pool 1 (3 donors), resting (IL-2 0 ng/mL); assay: as above; details: 72 h
[9] = tested on: normal primary NK cells, pool 1 (3 donors) (IL-2 2.5 ng/mL); assay: as above; details: 72 h
DERL-7 (IL-2 2.5 ng/mL) [10] = assay: as above; details: 72 h
SNK-6 (IL-2 2.5 ng/mL) [11] = assay: as above; details: 72 h
YT (IL-2 2.5 ng/mL) [12] = assay: as above; details: 72 h
NK-YS (IL-2 2.5 ng/mL) [13] = assay: as above; details: 72 h
KAI3 (IL-2 2.5 ng/mL) [14] = assay: as above; details: 72 h
NK-92 (IL-2 2.5 ng/mL) [15] = assay: drug sensitivity score (DSS) (DSS units); higher = more sensitive; extreme values may be limits of the assay; details: 72 h
KHYG-1 (IL-2 2.5 ng/mL) [16] = assay: as above; details: 72 h
[17] = tested on: normal primary NK cells, pool 3 (3 donors) (IL-2 2.5 ng/mL); assay: as above; details: 72 h
NKL (IL-2 2.5 ng/mL) [18] = assay: as above; details: 72 h
IMC-1 (IL-2 20 ng/mL) [19] = assay: as above; details: 72 h
[20] = tested on: normal primary NK cells, pool 2 (3 donors) (IL-2 2.5 ng/mL); assay: as above; details: 72 h
[21] = tested on: normal primary NK cells, pool 1 (3 donors), resting (IL-2 0 ng/mL); assay: as above; details: 72 h
[22] = tested on: normal primary NK cells, pool 1 (3 donors) (IL-2 2.5 ng/mL); assay: as above; details: 72 h
DERL-7 (IL-2 2.5 ng/mL) [23] = assay: as above; details: 72 h
SNK-6 (IL-2 2.5 ng/mL) [24] = assay: as above; details: 72 h
YT (IL-2 2.5 ng/mL) [25] = assay: as above; details: 72 h
NK-YS (IL-2 2.5 ng/mL) [26] = assay: as above; details: 72 h
KAI3 (IL-2 2.5 ng/mL) [27] = assay: as above; details: 72 h
[28] = tested on: normal NK cells expanded with K562-aAPC; assay: percent inhibition of viability; higher = more inhibition; details: 72 h, IL-2 2.5 ng/mL
Protocol: as §1

CN1CCN(c2ccc3nc(-c4c(N)c5c(F)cccc5[nH]c4=O)[nH]c3c2)CC1 [Dovitinib] (max concentration tested 10000 nM)
Details | drug sensitivity score
DERL-7 (IL-2 2.5 ng/mL) [23] | 0.77
IMC-1 (IL-2 20 ng/mL) [19] | 0
KAI3 (IL-2 2.5 ng/mL) [27] | 1.71
KHYG-1 (IL-2 2.5 ng/mL) [16] | 0
NK-92 (IL-2 2.5 ng/mL) [15] | 0
NK-YS (IL-2 2.5 ng/mL) [26] | 0.43
NKL (IL-2 2.5 ng/mL) [18] | 4.18
SNK-6 (IL-2 2.5 ng/mL) [24] | 0
YT (IL-2 2.5 ng/mL) [25] | 0
[1] | 0
[17] | 0.36
[20] | 0.35
[21] | 4.36
[22] | 0

percent inhibition of viability [%]
Details | 1 nM | 10 nM | 100 nM | 1000 nM | 10000 nM
DERL-7 (IL-2 2.5 ng/mL) [10] | -0.26 | -2.47 | -0.75 | 1.93 | 19.1
IMC-1 (IL-2 20 ng/mL) [6] | -9.28 | -4.03 | -5.76 | -6.55 | -7.61
KAI3 (IL-2 2.5 ng/mL) [14] | 2.03 | -0.28 | 0.82 | 4.98 | 25.2
KHYG-1 (IL-2 2.5 ng/mL) [3] | -5.15 | -3.54 | 0.13 | 3.06 | 2.7
NK-92 (IL-2 2.5 ng/mL) [2] | -5.95 | -5.28 | -3.15 | -3.74 | 0.3
NK-YS (IL-2 2.5 ng/mL) [13] | -1.41 | -0.72 | 1.54 | 8.71 | 13.5
NKL (IL-2 2.5 ng/mL) [5] | -10 | -6.08 | -3.28 | 8.58 | 51.6
SNK-6 (IL-2 2.5 ng/mL) [11] | -4.17 | -5.09 | -18.2 | -14 | -35.3
YT (IL-2 2.5 ng/mL) [12] | 1.17 | 0.22 | 2.9 | 5.68 | 1.67
[4] | -13.4 | -9.6 | -2.56 | -3.69 | 18.9
[7] | -7.55 | -5.64 | -7.93 | -6.84 | 19.6
[8] | -23.8 | -2.86 | 19.4 | 10.6 | 53.9
[9] | -15.6 | -11.3 | -2.48 | -5.56 | 9.92
[28] | -2.16 | -2.71 | 2.91 | -0.42 | 3.96

COc1cc2nccc(Oc3ccc(NC(=O)Nc4cc(C)on4)c(Cl)c3)c2cc1OC [Tivozanib] (max concentration tested 10000 nM)
Details | drug sensitivity score
DERL-7 (IL-2 2.5 ng/mL) [23] | 4.63
IMC-1 (IL-2 20 ng/mL) [19] | 1.23
KAI3 (IL-2 2.5 ng/mL) [27] | 2.57
KHYG-1 (IL-2 2.5 ng/mL) [16] | 4.48
NK-92 (IL-2 2.5 ng/mL) [15] | 11.5
NK-YS (IL-2 2.5 ng/mL) [26] | 5.65
NKL (IL-2 2.5 ng/mL) [18] | 3.83
SNK-6 (IL-2 2.5 ng/mL) [24] | 8.55
YT (IL-2 2.5 ng/mL) [25] | 5.67
[1] | 0
[17] | 0
[20] | 1.08
[21] | 6.37
[22] | 2.94

percent inhibition of viability [%]
Details | 1 nM | 10 nM | 100 nM | 1000 nM | 10000 nM
DERL-7 (IL-2 2.5 ng/mL) [10] | 6.25 | -4.07 | 8.65 | 3.71 | 74.2
IMC-1 (IL-2 20 ng/mL) [6] | 0.39 | 1.69 | -1.08 | 4.81 | 20.3
KAI3 (IL-2 2.5 ng/mL) [14] | 0.42 | 12.7 | 7.97 | 8.25 | 33.2
KHYG-1 (IL-2 2.5 ng/mL) [3] | 2.06 | 3.29 | 1.48 | 11.4 | 50.2
NK-92 (IL-2 2.5 ng/mL) [2] | 17.7 | 7.65 | 22.3 | 42.5 | 71
NK-YS (IL-2 2.5 ng/mL) [13] | -1.25 | 1.72 | 3.3 | 12.8 | 64.8
NKL (IL-2 2.5 ng/mL) [5] | -0.1 | -11 | -5.13 | 8.13 | 47.4
SNK-6 (IL-2 2.5 ng/mL) [11] | 0.59 | 1.54 | -8.58 | 41.8 | 65.3
YT (IL-2 2.5 ng/mL) [12] | 8.31 | 9.93 | 8.18 | 19.9 | 61.6
[4] | 8.53 | 3.31 | 5.07 | 0.75 | 3.16
[7] | 5.79 | 7.02 | 3.11 | -2.45 | 29.2
[8] | 5.37 | -0.35 | 5.84 | 18.5 | 67.5
[9] | -3.27 | -5.56 | -13 | 7.21 | 36.9
[28] | -1.14 | -3.52 | -0.12 | 3.67 | -4.22
